Measurements as given in patent US12582687B2, “Composition based on Crocus sativus and Cannabis sativa” (priority 2021, dated 2026).
Like-named read-outs stand apart in the source and are kept apart here.

Experiments:
[1] = target: acetylcholinesterase (AchE) (Homo sapiens, UniProt P22303); assay: Acetylcholinesterase activity, in vitro colorimetric Ellman method; format: biochemical; conditions: AchE 0.22 U/ml, ATCl 1 mM, 20 min
From the text: The aim of this assay is to compare acetylcholinesterase (AchE) activity in the presence of the composition according to the invention, with a safranal/cannabidiol (CBD) ratio of 0.03, with acetylcholinesterase activity in the presence of safranal or CBD alone.
AchE activity was monitored and measured in vitro by colorimetric reaction using the Ellman method. Acetylthiocholine (ATCl) is degraded to thiocholine and acetic acid by AChE. The thiocholine then reacts with the dithiobisnitrobenzoic ion (DTNB) and the resulting ion (TNB) gives a yellow coloration. In a 96-well plate, the following amounts were deposited in each well: 55 μl buffer (Tris-HCl 50 mM), 75 μl DTNB (5 mM), 25 μl AchE (0.22 U/ml), 25 μl test sample (buffer or safranal (1.2 μg/ml), or CBD (40 μg/ml), or safranal (1.2 μg/ml)+CBD (40 μg/ml).
At the last moment, 25 μL of ATCl (1 mM) was added to initiate the reaction. The absorbance was then monitored at 405 nM for 20 min. For each well, the absorbance values over time (Ax) are normalized relative to the first absorbance measurement (AT0) according to the following formula: Normalized absorbance (An)=Ax−AT0. The percentage of AchE inhibition was determined by comparing the slopes of the curves (in the linear part) against the control according to the following equation [Math 1]. […]

[2] = test system: anxiety symptoms in healthy adults under stress; conditions: CBD alone without THC, cited from earlier work

acetylcholinesterase (AchE), sequence (P22303 32-614, species assumed): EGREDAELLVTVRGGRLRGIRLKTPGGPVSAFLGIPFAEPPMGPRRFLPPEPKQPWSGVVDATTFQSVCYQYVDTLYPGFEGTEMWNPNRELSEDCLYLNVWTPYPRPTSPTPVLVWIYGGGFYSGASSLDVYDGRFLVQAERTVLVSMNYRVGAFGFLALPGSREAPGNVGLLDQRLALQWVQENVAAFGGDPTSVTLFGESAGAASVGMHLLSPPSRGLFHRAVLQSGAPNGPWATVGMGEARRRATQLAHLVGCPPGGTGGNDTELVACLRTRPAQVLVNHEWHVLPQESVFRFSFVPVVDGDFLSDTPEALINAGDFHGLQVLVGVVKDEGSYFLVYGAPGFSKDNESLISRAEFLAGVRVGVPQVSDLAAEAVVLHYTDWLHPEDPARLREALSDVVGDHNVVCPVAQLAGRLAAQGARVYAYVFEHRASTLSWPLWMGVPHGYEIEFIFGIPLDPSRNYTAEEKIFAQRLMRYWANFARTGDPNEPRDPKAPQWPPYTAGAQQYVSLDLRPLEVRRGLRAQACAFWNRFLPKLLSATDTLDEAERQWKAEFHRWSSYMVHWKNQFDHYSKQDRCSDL

Structure (SMILES): CC1=C(C=O)C(C)(C)CC=C1 [safranal]
- AchE activity compared with the control ([1]; safranal 1.2 μg/ml test sample): unchanged

Structure (SMILES): C=C(C)[C@@H]1CCC(C)=C[C@H]1c1c(O)cc(CCCCC)cc1O [CBD, 2-[(1R,6R)-6-isopropenyl-3-methylcyclohex-2-en-1-yl]-5-pentylbenzene-1,3-diol]
- inhibition at 40 µg/mL ([1]; CBD 40 μg/ml test sample, read-out: decrease in AchE activity (percentage of AchE inhibition relative to control)): 69.8%
- effect on anxiety symptoms ([2]; dose 300 mg): reducing anxiety symptoms
- effect on anxiety symptoms ([2]; higher dose 900 mg): no effect
- effect on anxiety symptoms ([2]; lower dose 100 mg): no effect
